In ChEMBL document CHEMBL1153680, “Structural influences of styryl-based inhibitors on epidermal growth factor receptor and p56lck tyrosine-specific protein kinases” (Bioorg Med Chem Lett, 1991):

Legend:
[1] = target: Epidermal growth factor receptor (Homo sapiens, UniProt P00533); experiment: Inhibition of Epidermal growth factor receptor
[2] = target: Tyrosine-protein kinase Lck (Homo sapiens, UniProt P06239); experiment: Inhibition of p56 lck tyrosine kinase
Chain of Tyrosine-protein kinase Lck (P06239 whole entry): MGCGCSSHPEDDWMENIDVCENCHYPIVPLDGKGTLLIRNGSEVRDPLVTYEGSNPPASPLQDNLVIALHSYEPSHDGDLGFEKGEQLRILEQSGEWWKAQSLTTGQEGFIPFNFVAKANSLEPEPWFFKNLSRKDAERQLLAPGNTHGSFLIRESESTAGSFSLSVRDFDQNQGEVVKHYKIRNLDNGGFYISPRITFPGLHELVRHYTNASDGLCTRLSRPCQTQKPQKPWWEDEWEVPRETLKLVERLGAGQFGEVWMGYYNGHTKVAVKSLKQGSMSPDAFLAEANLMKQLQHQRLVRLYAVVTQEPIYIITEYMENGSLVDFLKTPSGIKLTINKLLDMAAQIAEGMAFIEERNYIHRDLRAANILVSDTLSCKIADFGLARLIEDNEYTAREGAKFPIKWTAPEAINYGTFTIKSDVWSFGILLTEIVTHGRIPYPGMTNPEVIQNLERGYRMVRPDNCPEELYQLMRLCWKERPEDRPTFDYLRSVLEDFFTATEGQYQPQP

Chain of Epidermal growth factor receptor (P00533 whole entry): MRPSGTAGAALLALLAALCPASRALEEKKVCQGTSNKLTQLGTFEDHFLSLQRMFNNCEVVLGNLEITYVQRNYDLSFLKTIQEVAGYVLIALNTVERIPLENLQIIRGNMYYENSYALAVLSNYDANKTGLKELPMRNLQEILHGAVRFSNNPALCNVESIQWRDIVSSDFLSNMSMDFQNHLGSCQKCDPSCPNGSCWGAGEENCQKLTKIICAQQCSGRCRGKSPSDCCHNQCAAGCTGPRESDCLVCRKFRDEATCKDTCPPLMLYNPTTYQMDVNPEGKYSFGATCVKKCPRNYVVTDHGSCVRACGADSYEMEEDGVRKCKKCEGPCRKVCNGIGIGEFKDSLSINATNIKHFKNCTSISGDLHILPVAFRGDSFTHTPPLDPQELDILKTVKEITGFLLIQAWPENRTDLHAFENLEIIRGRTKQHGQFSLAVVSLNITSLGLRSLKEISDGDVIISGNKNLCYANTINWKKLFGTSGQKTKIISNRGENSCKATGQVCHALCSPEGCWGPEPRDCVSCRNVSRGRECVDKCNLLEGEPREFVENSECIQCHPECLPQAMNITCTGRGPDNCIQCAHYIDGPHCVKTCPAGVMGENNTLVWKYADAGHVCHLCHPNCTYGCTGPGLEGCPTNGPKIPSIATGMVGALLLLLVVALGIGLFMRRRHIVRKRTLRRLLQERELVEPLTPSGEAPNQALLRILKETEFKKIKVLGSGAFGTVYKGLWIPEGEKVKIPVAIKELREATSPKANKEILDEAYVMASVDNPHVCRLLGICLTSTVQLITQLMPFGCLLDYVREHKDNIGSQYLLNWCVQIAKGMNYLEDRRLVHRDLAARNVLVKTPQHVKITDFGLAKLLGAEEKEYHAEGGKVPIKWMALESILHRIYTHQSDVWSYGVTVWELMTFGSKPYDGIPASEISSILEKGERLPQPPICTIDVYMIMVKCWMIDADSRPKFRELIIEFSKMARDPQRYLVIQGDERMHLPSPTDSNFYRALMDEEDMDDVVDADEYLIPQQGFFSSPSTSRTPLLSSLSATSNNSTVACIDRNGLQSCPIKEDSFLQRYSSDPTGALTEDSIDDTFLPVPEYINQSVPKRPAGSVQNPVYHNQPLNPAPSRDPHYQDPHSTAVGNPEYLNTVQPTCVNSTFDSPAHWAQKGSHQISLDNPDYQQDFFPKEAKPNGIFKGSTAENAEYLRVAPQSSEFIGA

IC50 [1]	IC50 [2]	SMILES
4 µM	7 µM	N#C/C(=C\c1ccc(O)c(O)c1)C(N)=O
3 µM		O=CN/C=C/c1cc(O)ccc1O [ERBSTATIN]
10 µM	100 µM	N#C/C(=C\c1cc(O)ccc1O)C(N)=O
7 µM		O=CN/C=C/c1ccc(O)c(O)c1
